Reference: US11857661B2, “Anti-dandruff composition” (Kancor Ingredients Ltd, priority 2018, dated 2024)

Experiments:
[1] = test system: Malassezia furfur CBS 1878; assay: Minimum inhibitory concentration, broth dilution; assay type: cell-based; details: M. furfur CBS 1878; for minimum inhibition concentration (MIC) value: classic broth dilution protocol
Description: Inhibition is defined as giving less than 20% growth compared to a control, as determined by spectrophotometric optical density (OD) reading at 620 nm, using the formula % of growth=[(ODproduct−OCabsorbance-control)]/(ODpositive growth-control).
(§1) As noted above, the anti-dandruff active portion of the anti-dandruff composition comprises (or consists essentially of) a combination of at least two of the three described anti-dandruff actives (i.e., the punicalagin composition, the first monoterpenoid composition, and the second monoterpenoid composition). The combinations are based on the additive or synergistic relationship between the individual anti-dandruff actives. Inhibition testing of the individual anti-dandruff actives to determine MIC levels followed the principles and general methods disclosed in C. Lens-Lisbonne, et al. “Methods for the evaluation of antibacterial activity of essential oils: applications to essences of thyme and cinnamon,” J. Pharm. Belg., 1987, 42(5): 297-302; and C. Lisbonne “Evaluation of bacteriostatic activity of essential oils and their components,” Doctoral Thesis, Pharmacy Faculty, Marseille, F R 1988. Interactions of bi-component mixtures (Fractional Inhibitory Concentration) were evaluated in accordance with the method described by J. L. Pons et al., “Evaluation of antimicrobial interactions between chlorhexidine, quaternary ammonium compounds, preservatives and excipients,” J. Appl. Bacteriol., 1992, 73, 395-400, to assess their additive or synergistic effects.
Briefly, as is commonly known by those skilled in the art of the instant disclosure, assessment of Malassezia furfur inhibition may be accomplished following standard and accepted practices, such as that described in U.S. Patent Application Publication No. 2008/0249186. Accordingly, an external testing laboratory performed a series of against Malassezia furfur to evaluate antimicrobial activity and interactions (see Lens, et al. “Methods for the evaluation of antimicrobial activity of essential oils,” J. Pharm. Belg. 1987). Inhibitory activity testing was conducted by mixing 100 μl of various dilutions of the test product at a double concentration with an equal volume (100 μl) of a double strength Difco™ Sabouraud dextrose broth supplemented with olive oil, inoculated between 2 to 6×10^5 cfu/mL. After incubation (24-72 hours, at 32.5° C.±2.5° C.), a spectrophotometric reading at 620 nm is performed and the percentage of growth calculated from optical density (OD) measuring each concentration with respect to a positive growth control according to the following equation: % of growth=[ODproduct−ODabsorbance-control)]/(ODpositive growth-control).
Each concentration was tested in triplicate, and two assays were performed per product. The positive growth control consisted of 100 μl 1% agar solution mixed with 100 μl of inoculated broth.

[2] = test system: Malassezia furfur CBS 1878; assay: Association testing, checkerboard titration (FIC index); assay type: cell-based; details: M. furfur CBS 1878; sample B alone
Description: as §1
Study of Associations. After obtaining the MIC levels for each of the anti-dandruff actives by broth dilution method, a checkerboard titration technique was performed to assess the synergistic activity of the combinations. In order to evaluate the activity of the combinations of the anti-dandruff actives, a Fractional Inhibitory Concentration index (FICindex) was calculated: (FICindex)=FIC^A+FIC^B, where FIC^A and FIC^B represent the minimum concentrations inhibiting the M. furfur growth for anti-dandruff actives A and B, respectively. And FIC^A=MIC^Acombination/MIC^Aalone, and FIC^B=MIC^Bcombination/MIC^Balone.] A mean FIC index was calculated based on the following equation: FICindex=FIC^A+FIC^B. Synergism is defined as FIC≤0.75; additive as FIC˜1; indifference as 1<FIC≤2; and antagonism is defined as FIC>2, as reported by J. L. Pons; N. Bonnaveiro; J. Chevalier; and A. Crémieux, “Evaluation of antimicrobial interactions between chlorhexidine, quaternary ammonium compounds, preservatives and excipients,” J. Appl. Bacteriology, 1992, 73(5), 395-400.

minimum inhibition concentration (MIC) value [1]	MIC B Alone % [2]	Compound	Minimum Inhibitory Concentration, Test 1 [1]	Minimum Inhibitory Concentration, Test 2 [1]
> 1%	>1%	CC1=CCC(C(C)C)=CC1 [GTP, gamma-terpinene]		
0.5%	0.5%	Cc1ccc(C(C)C)cc1 [PCY, para-cymene]		
0.5%	0.5%	O=c1oc2c(O)c(O)cc3c(=O)oc4c(O)c(O)cc1c4c23 [EA, Ellagic Acid]	0.5%	0.5%
0.05%	0.05%	Cc1ccc(C(C)C)c(O)c1 [TML, thymol]		

Compound	minimum inhibition concentration (MIC) value [1]	MIC B Alone % [2]	Minimum Inhibitory Concentration, Test 1 [1]	Minimum Inhibitory Concentration, Test 2 [1]
Punicalagins A&B	0.05%	0.05%	0.05%	0.05%
